From patent US8053392B2, “Auxin acid-catalyzed stable microemulsion pesticide formulation” (PBI/Gordon Corporation, priority 2007, dated 2011)

Assay: Chemical stability tests of active ingredients in microemulsion formulations at 40° C. for one month
Format: physicochemical
Description: Chemical stability tests were conducted on four-way active ingredient microemulsion formulations at 40° C. for one month to determine the active ingredient percent difference at the end of one month.
Other formulations were subjected to accelerated chemical stability tests at a temperature of 40° C. for a period of one month to determine total chemical stability of the active ingredients.
Only the chemical stability of pyraflufen-ethyl was analyzed because of its susceptibility to hydrolysis, as set forth in Examples 13-16.

[1] = four-way microemulsion of Example 11
[2] = four-way microemulsion of Example 12

| Compound | Chemical Stability (active ingredient percent difference) [1] | Chemical Stability (active ingredient percent difference) [2] | Pyraflufen-ethyl Chemical Stability (formulation of Example 13 (2,4-D acid 9.0%, Dicamba […], Pyraflufen-ethyl 0.6%)) | Pyraflufen-ethyl Chemical Stability (formulation of Example 14 (2,4-D acid 9.0%, R(+)MCPP 1.63%, Pyraflufen-ethyl 0.6%)) | Pyraflufen-ethyl Chemical Stability (formulation of Example 15 (2,4-D acid 9.0%, R(+)MCPP 1.63%, Dicamba […], Pyraflufen-ethyl 0.6%)) | Pyraflufen-ethyl Chemical Stability (formulation of Example 16 (2,4-D acid 9.0%, Pyraflufen-ethyl 0.1%)) |
| --- | --- | --- | --- | --- | --- | --- |
| CCCCC(CC)COC(=O)COc1ccc(Cl)cc1Cl (stereo not shown) [2,4-D 2EHE, 2,4-D 2-ethyl hexyl ester] | +1.25% | +2.02% |  |  |  |  |
| O=C(O)COc1nc(Cl)c(Cl)cc1Cl [Triclopyr] | +1.94% | +2.38% |  |  |  |  |
| CCOC(=O)COc1cc(-c2nn(C)c(OC(F)F)c2Cl)c(F)cc1Cl [Pyraflufen-ethyl] | +1.44% | −0.90% | +5.89% | +1.05% | +1.07% | +0.93% |
